Experimental data published in paper PMC7679302 (Environmental Science and Pollution Research International, 2020).
Marks after values point to notes of the source that are not given here.

Key:
Daphnia magna [1] = conditions: ref FDA-CDER [1996]; cited from earlier work
[2] = test system: juvenile mussels L. siliquoidea; assay: 21 d range-finding sediment test, juvenile mussels; type: in vivo; conditions: n = 3
Experimental: (§1) Range-finding tests of 21 d were completed with juvenile mussels, amphipods and mayflies to assist with the selection of the concentrations to be used in final testing. Nominal concentrations in range-finding tests were 0.1, 1, 10, 100, and 1000 mg/kg, based on dry weight of sediment. Range-finding test conditions were identical to those described in the manuscript for chronic sediment tests with the exception of test duration.
After 21 d, mussels were recovered and transferred to Petri dishes filled with clean sand and housed in large trays of aerated culture water to assess burial ability.

amphipod Hyalella azteca = assay: Chronic 42-day sediment test with amphipods (survival, growth, reproduction, sex ratio); conditions: for Females (percent of surviving amphipods), mean (SEM) / Survival (percent of initial animals added), mean (SEM): n = 10
Experimental: Dechlorinated municipal tap water was used for cultures and toxicity tests. Both cultures and toxicity tests were held at 25 °C with a photoperiod of 16 h light:8 h dark, and amphipods were fed finely ground Tetra-Min fish food flakes (Tetra GMBH, Melle, Germany). Juvenile amphipods were removed weekly from breeding containers and used in toxicity tests.
Two tests were conducted for each compound. Amphipods were fed ground Tetra-Min twice per week during weeks 1 and 2, three times during week 3, and 5 mg three times per week during weeks 4 to 6. Surviving adults were counted, weighed as a group, and examined under a dissecting microscope to identify males (enlarged second gnathopods) and females, and the number of juveniles was recorded.

mayfly Hexagenia spp. [3] = conditions: Hexagenia spp. (mixture of H. rigida and H. limbata), in vivo, 42 days, pH 8.3
Experimental: (§3) Nominal concentrations were 10, 30, 100, 300, and 1000 mg/kg for juvenile freshwater mussels and 3, 10, 30, 100, and 300 mg/kg for amphipods and mayflies, and were based on the results of range-finding tests (detailed in Supplementary Materials). […] For each PPCP, the concentration of solvent used was consistent across treatments.
(§4) The sediments were mixed for 24 h, left open in a fume hood for 3–5 days for the acetone to evaporate, and then stored at 4 °C until use. […] All beakers were aerated for 1 week under testing conditions prior to the addition of organisms, and throughout the tests. Duration of toxicity tests varied depending on the species and endpoint of interest (see below). Water quality parameters were collected for each test (Table S1).
(§5) Briefly, eggs of Hexagenia spp. […] Prior to testing, eggs were hatched and nymphs were grown in aerated 20-L aquaria containing culture sediment (depth: 2.5 cm) and culture water (depth: 10 cm) for 6 to 7 weeks.
(§6) Ten mayflies (5–8 mg wet weight) were added to each beaker (three replicates for each control and PPCP concentration). Two tests were conducted for each compound. […] At the end of the test, mayflies were removed and surviving animals from each of the three replicates were counted and weighed.

mayflies Hexagenia spp. = assay: 21 d range-finding sediment test, mayflies; type: in vivo; conditions: n = 3
Experimental: as §1
At the end of the test, survival and wet weight of mayflies in each replicate were recorded.

[4] = test system: Lampsilis siliquoidea glochidia; assay: Acute 48 h aqueous toxicity test with glochidia (viability); type: in vivo; conditions: Lampsilis siliquoidea, in vivo, 48 h
Text: (§2) Aqueous acute toxicity tests were based on the American Society for Testing and Materials (ASTM [2013]) protocols for conducting toxicity tests with early life stages of freshwater mussels. Gravid female L. siliquoidea were collected from an established reference site in the Maitland River (ON) and kept in ECCC’s Aquatic Life Research Facility (Canada Centre for Inland Waters, Burlington, ON). Glochidia were removed from gravid females and their viability (i.e., ability to close their valves) was assessed. Glochidia from a minimum of three gravid mussels whose glochidia exceeded 90% viability were pooled and exposed to a geometric series of nominal concentrations (0, 0.0025, 0.025, 0.25, 2.5, 25 mg/L) of either FIN or MGA plus a solvent control. Tests were conducted in 250-mL glass beakers (unaerated and unfed) with culture water. After 24 and 48 h of exposure, glochidia viability was assessed in a minimum of 100 glochidia per replicate (four replicates). Water samples were collected at the beginning and end of the tests, and frozen pending chemical analysis.

[5] = as above; type: in vivo, Lampsilis siliquoidea; conditions: Lampsilis siliquoidea, in vivo
Text: as §2

amphipods H. azteca = assay: 21 d range-finding sediment test, amphipods; type: in vivo, Hyalella azteca; conditions: n = 3
Experimental: as §1
Amphipods were fed 2.5 mg Tetra-min twice per week during weeks one and two, and three times during week three. At the end of the test, amphipods were removed and the survivors were counted and weighed.

[6] = test system: rainbow trout (Oncorhynchus mykiss); conditions: ref FDA-CDER [1996]; cited from earlier work
mayfly Hexagenia spp. [7] = assay: Chronic 42-day sediment test with mayflies (survival, growth); conditions: measured, n = 6
Experimental: as §3, §4, §5, §6

[8] = test system: juvenile Lampsilis siliquoidea; assay: Chronic 28-day spiked sediment test with juvenile mussels (survival, burial ability); conditions: for Burial ability (percent of surviving mussels), mean (SEM) / Survival (percent of initial animals added), mean (SEM): n = 5
Text: Freshwater mussels (L. siliquoidea, 6–8 months old, ~ 1 cm in length) were purchased from Missouri State University (Springfield, MO, USA).

[9] = test system: fathead minnow (Pimephales promelas); parameters: method as in Lalone et al. [2013]; conditions: 21-day exposure; ref Lalone et al. [2013]; cited from earlier work
[10] = test system: Japanese medaka (Oryzias latipes); parameters: method as in Lalone et al. [2013]; conditions: 21-day exposure; ref Lalone et al. [2013]; cited from earlier work
Daphnia magna [11] = test system: Daphnia magna; parameters: method as in Lalone et al. [2013]; conditions: 21-day exposure to as much as 500 μg/L; ref Lalone et al. [2013]; cited from earlier work
[12] = finasteride 1 mg/kg dw sediment (0.003 mg/L water), measured, 42-day
[13] = finasteride 4 mg/kg dw sediment (0.03 mg/L water), measured, 42-day
[14] = finasteride 11 mg/kg dw sediment (0.1 mg/L water), measured, 42-day
[15] = finasteride 35 mg/kg dw sediment (0.5 mg/L water), measured, 42-day
[16] = finasteride 96 mg/kg dw sediment (2 mg/L water), measured, 42-day
[17] = survival, growth, 42-day, dry weight sediment, measured
[18] = finasteride 4 mg/kg dw sediment (0.03 mg/L water), measured
[19] = finasteride 11 mg/kg dw sediment (0.1 mg/L water), measured
[20] = finasteride 35 mg/kg dw sediment (0.5 mg/L water), measured
[21] = finasteride 96 mg/kg dw sediment (2 mg/L water), measured
[22] = finasteride 430 mg/kg dw sediment (20 mg/L water), measured
[23] = survival, dry weight sediment, measured
[24] = survival, overlying water, measured

SMILES: CC(C)(C)NC(=O)[C@H]1CC[C@H]2[C@@H]3CC[C@H]4NC(=O)C=C[C@]4(C)[C@H]3CC[C@]12C [Finasteride]
- 96-h LC50 (Daphnia magna [1]): 21 µg/mL
- Burial (%), mean (SEM) ([2]; 0.1 mg/kg dry weight nominal): 72 (6.3) %
- Survival (%), mean (SEM) ([2]; 0.1 mg/kg dry weight nominal): 100 (0.0) %
- Burial (%), mean (SEM) ([2]; 1 mg/kg dry weight nominal): 93 (3.3) %
- Survival (%), mean (SEM) ([2]; 1 mg/kg dry weight nominal): 100 (0.0) %
- Burial (%), mean (SEM) ([2]; 10 mg/kg dry weight nominal): 87 (6.7) %
- Survival (%), mean (SEM) ([2]; 10 mg/kg dry weight nominal): 100 (0.0) %
- Burial (%), mean (SEM) ([2]; 100 mg/kg dry weight nominal): 90 (0.0) %
- Survival (%), mean (SEM) ([2]; 100 mg/kg dry weight nominal): 100 (0.0) %
- Burial (%), mean (SEM) ([2]; 1000 mg/kg dry weight nominal): 77 (5.1) %
- Survival (%), mean (SEM) ([2]; 1000 mg/kg dry weight nominal): 53 (6.7)^a %
- Survival, % of pooled controls (amphipod Hyalella azteca; 96 mg/kg (2 mg/L) FIN, 42-day): 65%
- NOEC, overlying water (amphipod Hyalella azteca; Hyalella azteca, in vivo, 42 days, pH 8.3): 0.5 mg/L
- Females (percent of surviving amphipods), mean (SEM) (amphipod Hyalella azteca; [12]): 57 (4.2) %
- Survival (percent of initial animals added), mean (SEM) (amphipod Hyalella azteca; [12]): 96 (1.4) %
- Females (percent of surviving amphipods), mean (SEM) (amphipod Hyalella azteca; [13]): 53 (3.0) %
- Survival (percent of initial animals added), mean (SEM) (amphipod Hyalella azteca; [13]): 93 (1.7) %
- Females (percent of surviving amphipods), mean (SEM) (amphipod Hyalella azteca; [14]): 50 (4.4) %
- Survival (percent of initial animals added), mean (SEM) (amphipod Hyalella azteca; [14]): 94 (1.7) %
- Females (percent of surviving amphipods), mean (SEM) (amphipod Hyalella azteca; [15]): 52 (2.7) %
- Survival (percent of initial animals added), mean (SEM) (amphipod Hyalella azteca; [15]): 92 (2.0) %
- Females (percent of surviving amphipods), mean (SEM) (amphipod Hyalella azteca; [16]): 69 (4.4)^d %
- Survival (percent of initial animals added), mean (SEM) (amphipod Hyalella azteca; [16]): 63 (8.3)^d %
- ChV, sediment (amphipod Hyalella azteca; survival, growth, 42-day, dry weight sediment): 58 mg/kg
- LOEC, sediment (amphipod Hyalella azteca; [17]): 96 mg/kg
- NOEC, sediment (amphipod Hyalella azteca; [17]): 35 mg/kg
- ChV, overlying water (amphipod Hyalella azteca; survival, growth, 42-day, overlying water): 1 mg/L
- LOEC, overlying water (amphipod Hyalella azteca; survival, growth, 42-day, overlying water, measured): 2 mg/L
- ChV, overlying water (mayfly Hexagenia spp. [3]): 1 mg/L
- LOEC, overlying water (mayfly Hexagenia spp. [3]): 2 mg/L
- LOEC, sediment (mayfly Hexagenia spp. [3]): 96 mg/kg
- NOEC, overlying water (mayfly Hexagenia spp. [3]): 0.5 mg/L
- NOEC, sediment (mayfly Hexagenia spp. [3]): 35 mg/kg
- Growth, mean (SEM) (mayflies Hexagenia spp.; 0.1 mg/kg dry weight nominal): 30 (0.5) mg wet weight
- Survival (%), mean (SEM) (mayflies Hexagenia spp.; 0.1 mg/kg dry weight nominal): 100 (0.0) %
- Growth, mean (SEM) (mayflies Hexagenia spp.; 1 mg/kg dry weight nominal): 30 (0.6) mg wet weight
- Survival (%), mean (SEM) (mayflies Hexagenia spp.; 1 mg/kg dry weight nominal): 100 (0.0) %
- Growth, mean (SEM) (mayflies Hexagenia spp.; 10 mg/kg dry weight nominal): 31 (0.3) mg wet weight
- Survival (%), mean (SEM) (mayflies Hexagenia spp.; 10 mg/kg dry weight nominal): 100 (0.0) %
- Growth, mean (SEM) (mayflies Hexagenia spp.; 100 mg/kg dry weight nominal): 29 (1.3) mg wet weight
- Survival (%), mean (SEM) (mayflies Hexagenia spp.; 100 mg/kg dry weight nominal): 93 (3.3)^a %
- Growth, mean (SEM) (mayflies Hexagenia spp.; 1000 mg/kg dry weight nominal): 4.5^a,^d (0.0) mg wet weight
- Survival (%), mean (SEM) (mayflies Hexagenia spp.; 1000 mg/kg dry weight nominal): 3.3^a (3.3) %
- ChV (geometric mean of NOEC and LOEC) [4]: 7.6 mg/L
- LOEC [4]: 23 mg/L^a
- NOEC [4]: 2.5 mg/L
- viability at 48 h, 0.003 mg/L [5]: 90%
- viability at 48 h, 0.03 mg/L [5]: 87%
- viability at 48 h, 0.3 mg/L [5]: 87%
- viability at 48 h, 2.5 mg/L [5]: 88%
- viability at 48 h, 23 mg/L [5]: 85%
- Growth, mean (SEM) (amphipods H. azteca; 0.1 mg/kg dry weight nominal): 1.1 (0.12) mg wet weight
- Survival (%), mean (SEM) (amphipods H. azteca; 0.1 mg/kg dry weight nominal): 100 (0.0) %
- Growth, mean (SEM) (amphipods H. azteca; 1 mg/kg dry weight nominal): 1.1 (0.04) mg wet weight
- Survival (%), mean (SEM) (amphipods H. azteca; 1 mg/kg dry weight nominal): 100 (0.0) %
- Growth, mean (SEM) (amphipods H. azteca; 10 mg/kg dry weight nominal): 1.2 (0.05) mg wet weight
- Survival (%), mean (SEM) (amphipods H. azteca; 10 mg/kg dry weight nominal): 100 (0.0) %
- Growth, mean (SEM) (amphipods H. azteca; 100 mg/kg dry weight nominal): 0.79 (0.06) mg wet weight
- Survival (%), mean (SEM) (amphipods H. azteca; 100 mg/kg dry weight nominal): 100 (0.0) %
- Survival (%), mean (SEM) (amphipods H. azteca; 1000 mg/kg dry weight nominal): 0^a (0.0) %
- 96-h LC50 [6]: 20 µg/mL
- Survival (percent of initial animals added), mean (SEM) (mayfly Hexagenia spp. [7]; finasteride 1 mg/kg dw sediment (0.003 mg/L water)): 98 (1.7) %
- Survival (percent of initial animals added), mean (SEM) (mayfly Hexagenia spp. [7]; finasteride 4 mg/kg dw sediment (0.03 mg/L water)): 97 (2.1) %
- Survival (percent of initial animals added), mean (SEM) (mayfly Hexagenia spp. [7]; finasteride 11 mg/kg dw sediment (0.1 mg/L water)): 100 (0.0) %
- Survival (percent of initial animals added), mean (SEM) (mayfly Hexagenia spp. [7]; finasteride 35 mg/kg dw sediment (0.5 mg/L water)): 90 (2.6)^d,i %
- Survival (percent of initial animals added), mean (SEM) (mayfly Hexagenia spp. [7]; finasteride 96 mg/kg dw sediment (2 mg/L water)): 97 (2.1) %
- Burial ability (percent of surviving mussels), mean (SEM) [8, 18]: 90 (5.5) %
- Survival (percent of initial animals added), mean (SEM) [8, 18]: 94 (2.4) %
- Burial ability (percent of surviving mussels), mean (SEM) [8, 19]: 98 (2.0) %
- Survival (percent of initial animals added), mean (SEM) [8, 19]: 94 (4.0) %
- Burial ability (percent of surviving mussels), mean (SEM) [8, 20]: 88 (4.0) %
- Survival (percent of initial animals added), mean (SEM) [8, 20]: 98 (2.0) %
- Burial ability (percent of surviving mussels), mean (SEM) [8, 21]: 82 (5.5) %
- Survival (percent of initial animals added), mean (SEM) [8, 21]: 72 (8.6)^d %
- Burial ability (percent of surviving mussels), mean (SEM) [8, 22]: 0 (0)^d %
- Survival (percent of initial animals added), mean (SEM) [8, 22]: 10 (5.5)^d %
- Overlying water concentration at which both survival and burial ability were reduced ([8]; measured): 20 mg/L
- Sediment concentration at which both survival and burial ability were reduced ([8]; measured): 430 mg/kg
- ChV, sediment ([8]; survival, dry weight sediment): 58 mg/kg
- LOEC, sediment [8, 23]: 96 mg/kg
- NOEC, sediment [8, 23]: 35 mg/kg
- ChV, overlying water ([8]; survival, overlying water): 1 mg/L
- LOEC, overlying water [8, 24]: 2 mg/L
- NOEC, overlying water [8, 24]: 0.5 mg/L

SMILES: CC(=O)S[C@@H]1CC2=CC(=O)CC[C@]2(C)[C@H]2CC[C@@]3(C)[C@@H](CC[C@@]34CCC(=O)O4)[C@H]12 [spironolactone]
- Concentration that reduced fecundity [9]: 50 ng/mL
- Concentration that reduced fecundity [10]: 50 ng/mL
- Effect on reproduction (Daphnia magna [11]): no effect
